In patent US9884032B2, “Esters of short chains fatty acids for use in the treatment of immunogenic disorders” (priority 2012, dated 2018):
Where “and” joins values, the source holds several entries; their conditions need not be identical. Identical values can stand only once. Entries after “also recorded” stand apart in the source; their conditions may differ. Like-named read-outs stand apart in the source and are kept apart here.

How the values were obtained:
Type in all cases: in vivo, BALB/c mice
[1] = test system: Influenza A strain HK/PR8; details: for delta Ct / flu/β-actin: lungs day 5, individual mice; for flu/β-actin: Experiment 3
[2] = test system: metapneumonia virus A1 6621 (MPV); details: 100 mg/kg intranasally day -1 and 0; day 5 post infection
airway eosinophilia = assay: Propionate intranasal efficacy study, HDM asthma: BAL differential cell counts (Example 3); details: 100 mg/kg intranasally; all treatment regimes (pretreatment; pretreatment and priming; pretreatment, priming and challenge); day 14
Procedure: On days 0, 2, 4, 7, 8 and 11 mice were exposed to 15 ug of house dust mite extract (Greer) intranasally. On day 14, all mice were sacrificed and bronchoalveolar lavage (BAL) was performed with sterile PBS. The total number of macrophages (FIG. 3B), eosinophils (FIG. 3A), lymphocytes (FIG. 3C) and neutrophils (FIG. 3D) was determined by total and differential cell counts using standard morphological and cytochemical techniques.
BAL was performed by flushing the airways three times with 1 ml PBS. Total BAL cells were counted using a Coulter Counter (IG Instruments) and spun onto glass slides using a Cytospin 2 (Shandon Southern Products, Ltd.). Cells were then stained with Diff Quick staining set (Siemens-Dade Behring). Percentages of eosinophils, macrophages, lymphocytes and neutrophils were determined microscopically using standard morphological and cytochemical criteria.
Female BALB/c mice were purchased from Charles River Laboratories at 8 weeks of age. […] On days 0, 2, 4, 7, 8 and 11 mice were exposed to 15 μg of house dust mite extract (Greer) per nasal. On day 14, all mice were sacrificed and bronchoalveolar lavage (BAL) was performed with sterile PBS. The total number of macrophages, eosinophils, lymphocytes and neutrophils was determined by total and differential cell counts using standard morphological and cytochemical techniques. […]

[3] = test system: Influenza virus strain PR8; assay: Propionate intranasal efficacy study, influenza: lung viral load by PCR (Example 1); details: 100 mg/kg intranasally on days -3, -1, 0; day 5 post infection; compared to saline
Procedure: On day 0 all mice were infected with Influenza virus strain PR8. On day 5 post infection, mice were sacrificed, lungs isolated and viral load determined by PCR.
Female BALB/c mice were purchased from Charles River Laboratories at 8 weeks of age. […] On day 0 mice were infected with 100 PFU of Influenza strain PR8 in 30 μl of PBS solution. On day 5 post infection, mice were sacrificed and lungs were removed and placed in Tri reagent solution. Total RNA was purified from cells obtained from whole lung tissue using Tri reagent. Real time PCR was carried out according to manufacturers instructions using the quantifast SYBR green RT-PCR kit (Qiagen). The following primers Influenza matrix protein primers were used: forward 5′-[…]-3′, reverse 5′-[…]-3′. B-actin primers forward 5′-[…]-3′, reverse 5′-[…]-3′ as previously described van Elden, L. J., M. Nijhuis, P. Schipper, R. Schuurman, A. M. van Loon. 2001. Simultaneous detection of influenza viruses A and B using real-time quantitative PCR. J. Clin. Microbiol. 39: 196-200.

CCC(=O)[O-].[Na+] [sodium propionate]
Flu titer at 1 mg/kg compared with the other doses ([1]; Experiment 1, doses 100, 10, 1 mg/kg i.n.): lowest Flu titers
delta Ct ([1]; Experiment 2, 0.01 mg/kg i.n. day 0, listed as NA Propionate, 0.01 mg/kg): 0.05776 and 0.1427 and 0.4687 and 0.01899 and 0.2875
delta Ct ([1]; Experiment 2, 0.1 mg/kg i.n. day 0, listed as NA Propionate, 0.1 mg/kg): 0.3178 and 0.08239 and 0.2101 and 0.01484 and 0.2815
delta Ct ([1]; Experiment 2, 1 mg/kg i.n. day 0, listed as NA Propionate, 1 mg/kg): 0.01819 and 0.02787 and 0.08699 and 0.009033 and 0.07967
delta Ct ([1]; Experiment 2, 10 mg/kg i.n. day 0, listed as Na Propionate, 10 mg/kg): 0.1146 and 0.03546 and 0.05123 and 0.1345
delta Ct ([1]; Experiment 2, 100 mg/kg i.n. day 0, listed as Na Propionate, 100 mg/kg): 0.02338 and 0.01681 and 0.2248 and 0.2282
efficacy against influenza infection, dose titration ([1]; Experiment 2, dose of 0.1 mg/kg or less i.n.): lack of efficacy
Flu titer / efficacy at 1 mg/kg compared with the other doses ([1]; Experiment 2, doses 100 to 0.01 mg/kg i.n.): highest efficacy; also recorded: lowest Flu titer
efficacy against influenza infection, dose titration ([1]; Experiment 2, from 100 mg/kg to 1 mg/kg i.n.): trend towards efficacy
flu/β-actin ([1]; 100 mg/kg i.n. Day 0, listed as Na Propionate, 100 mg/kg): 0.154 and 0.244 and 0.334 and 0.303
flu/β-actin ([1]; 100 mg/kg i.n. Day +1, listed as Na Propionate, 100 mg/kg): 0.176 and 0.277 and 0.312 and 0.217
optimal dose, intranasal ([1]; mouse, in vivo): 1 mg/kg
protection against MPV infection [2]: exhibits efficacy in the protection against MPV infection
airway eosinophilia (BAL eosinophils) (airway eosinophilia): statistically significant reductions
viral load in the lungs [3]: markedly lower viral load
